Test results from patent publication US12187709B2 (Genentech, Inc., priority 2021, dated 2025).

What was measured:
Cbl-b = Cbl-b (Homo sapiens (Human), UniProt Q13191); assay: Cbl-b LCK Ub TR-FRET assay (Cbl-b Lck HTRF); assay type: biochemical; conditions: for IC50: Cbl-b LCK Ub TR-FRET, Example 121; for (fold-selectivity) Cbl-b and C-Cbl Selectivity: ratio C-cbl Lck HTRF IC50 / Cbl-b Lck HTRF IC50
Method in brief: (§1)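 Signal is read once the detection mix has stood 20 min at ambient temperature. Curves are anchored by DMSO as maximum and by omission of LCK as minimum.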

c-Cbl = c-Cbl (Homo sapiens (Human), UniProt P22681); assay: C-Cbl LCK Ub TR-FRET assay (C-cbl Lck HTRF); assay type: biochemical
Sequence of c-Cbl (P22681 47-435): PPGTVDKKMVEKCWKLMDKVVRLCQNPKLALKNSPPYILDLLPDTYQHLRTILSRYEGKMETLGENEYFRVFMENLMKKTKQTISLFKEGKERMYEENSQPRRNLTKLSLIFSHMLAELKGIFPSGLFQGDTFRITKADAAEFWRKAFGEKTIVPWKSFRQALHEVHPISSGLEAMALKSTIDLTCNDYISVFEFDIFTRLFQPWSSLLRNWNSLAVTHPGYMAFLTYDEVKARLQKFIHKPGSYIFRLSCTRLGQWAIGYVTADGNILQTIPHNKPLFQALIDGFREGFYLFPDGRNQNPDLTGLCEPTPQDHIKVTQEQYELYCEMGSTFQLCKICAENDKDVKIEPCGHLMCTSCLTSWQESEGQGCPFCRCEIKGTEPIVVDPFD
Method in brief: as §1

[1] = target: Human Cbl-b (residues 40-426) (Homo sapiens (Human), UniProt Q13191); assay: Cbl-b SPR assay; assay type: binding; conditions: for Fold of selectivity: C-cbl SPR Kd vs Cbl-b SPR Kd; for Kd: SPR, 20° C.
Sequence of Human Cbl-b (residues 40-426) (Q13191 40-426): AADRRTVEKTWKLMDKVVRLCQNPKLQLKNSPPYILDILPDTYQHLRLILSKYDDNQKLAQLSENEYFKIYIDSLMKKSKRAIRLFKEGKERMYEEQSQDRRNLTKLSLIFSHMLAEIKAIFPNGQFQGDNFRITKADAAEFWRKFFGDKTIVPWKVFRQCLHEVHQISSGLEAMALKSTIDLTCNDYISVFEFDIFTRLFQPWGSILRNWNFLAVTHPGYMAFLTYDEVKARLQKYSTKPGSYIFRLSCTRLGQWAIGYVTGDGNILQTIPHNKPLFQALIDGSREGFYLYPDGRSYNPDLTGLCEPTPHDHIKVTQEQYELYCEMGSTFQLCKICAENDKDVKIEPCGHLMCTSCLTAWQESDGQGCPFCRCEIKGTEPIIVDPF
Method in brief: (§2)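 Binding is measured by surface plasmon resonance against both isoforms, with double referencing and 1:1 kinetic fitting. Dissociation time is tuned to 4-5 half-lives.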

c-Cbl (residues 47-435) = c-Cbl (residues 47-435) (Homo sapiens (Human), UniProt P22681); assay: c-Cbl SPR assay; assay type: binding; conditions: 20° C.
Sequence of c-Cbl (residues 47-435) (P22681 47-435): as the sequence (P22681 47-435) above
Method in brief: as §2

Sequence of Cbl-b (Q13191 40-426): as the sequence (Q13191 40-426) above

Row | Structure (SMILES) | IC50 (Cbl-b) [nM] | (fold-selectivity) Cbl-b and C-Cbl Selectivity (Cbl-b) [x] | IC50 (c-Cbl) [nM] | Fold of selectivity [1] [×] | Kd [1] [nM] | Kd (c-Cbl (residues 47-435)) [nM]
1 | CCC(NCc1cc2c(c(C(F)(F)F)c1)CN(c1cccc([C@]3(c4nncn4C)C[C@H](OC)C3)c1)C2=O)C(=O)OC (stereo partly drawn) [Compound 425, methyl 2-(((2-(3-((1r,3r)-3-methoxy-1-(4-methyl-4H-1,2,4-triazol-3-yl)cyclobutyl)phenyl)-3-oxo-7-(trifluoromethyl)isoindolin-5-yl)methyl)amino)butanoate] | 130 | 6.8 | 880 | 11 | 170 | 1900
2 | CO[C@H]1C[C@](c2cccc(N3Cc4c(cc(CNC5CC6(C5)CC6(F)F)cc4C(F)(F)F)C3=O)c2)(c2nncn2C)C1 (stereo partly drawn) [Compound 426, 6-(((1,1-difluorospiro[2.3]hexan-5-yl)amino)methyl)-2-(3-((1r,3r)-3-methoxy-1-(4-methyl-4H-1,2,4-triazol-3-yl)cyclobutyl)phenyl)-4-(trifluoromethyl)isoindolin-1-one] | 13 | 4.6 | 60 | 15 | 6.6 | 9.9
3 | CO[C@H]1C[C@](c2cccc(N3Cc4c(cc(CNC5CC6C(C5)C6(F)F)cc4C(F)(F)F)C3=O)c2)(c2nncn2C)C1 (stereo partly drawn) [Compound 427, 6-(((6,6-difluorobicyclo[3.1.0]hexan-3-y)amino)methyl)-2-(3-((1r,3r)-3-methoxy-1-(4-methyl-4H-1,2,4-triazol-3-yl)cyclobutyl)phenyl)-4-(trifluoromethyl)isoindolin-1-one] | 7 | 3.1 | 22 | 14 | 2.6 | 37
4 | C[C@@H](NC1(C)CCC1)c1cc2c(c(C(F)(F)F)c1)CN(c1cccc([C@H](c3nncn3C)C3COC3)c1)C2=O [Compound 444, 2-(3-((R)-(4-methyl-4H-1,2,4-triazol-3-yl)(oxetan-3-yl)methyl)phenyl)-6-((R)-1-((1-methylcyclobutyl)amino)ethyl)-4-(trifluoromethyl)isoindolin-1-one] | 4.1 | 1.1 | 4.5 | 1.8 | 0.4 | 0.7
5 | C[C@H](NC1(C)CCC1)c1cc2c(c(C(F)(F)F)c1)CN(c1cccc([C@H](c3nncn3C)C3COC3)c1)C2=O [Compound 445, 2-(3-((R)-(4-methyl-4H-1,2,4-triazol-3-yl)(oxetan-3-yl)methyl)phenyl)-6-((S)-1-((1-methylcyclobutyl)amino)ethyl)-4-(trifluoromethyl)isoindolin-1-one] | 9.7 | 3.1 | 30 | 4.7 | 4.8 | 23
6 | Cn1cnnc1[C@]1(c2cccc(N3Cc4c(cc(CNC5(C)CCC5)cc4C(F)F)C3=O)c2)C[C@H](Cl)C1 [Compound 446, 2-(3-((1s,3s)-3-chloro-1-(4-methyl-4H-1,2,4-triazol-3-yl)cyclobutyl)phenyl)-4-(difluoromethyl)-6-(((1-methylcyclobutyl)amino)methyl)isoindolin-1-one] | 6.8 | 1.7 | 11 | 5.1 | 1.3 | 6.6
7 | Cn1cnnc1[C@]1(c2cccc(N3Cc4c(cc(CNC5(C)CCC5)cc4C(F)F)C3=O)c2)C[C@@H](Cl)C1 [Compound 447, 2-(3-((1r,3r)-3-chloro-1-(4-methyl-4H-1,2,4-triazol-3-yl)cyclobutyl)phenyl)-4-(difluoromethyl)-6-(((1-methylcyclobutyl)amino)methyl)isoindolin-1-one] | 4.5 | 1.4 | 6.2 | 5.3 | 0.3 | 1.6
8 | CO[C@H]1C[C@@](c2cccc(N3Cc4ccc(CNC5(C)CCC5)cc4C3=O)c2)(c2nncn2C)C1 [Compound 448, 2-(3-((1s,3s)-3-methoxy-1-(4-methyl-4H-1,2,4-triazol-3-yl)cyclobutyl)phenyl)-6-(((1-methylcyclobutyl)amino)methyl)isoindolin-1-one] | 730 | 5.5 | 3900 | 5.8 | 420 | 2500
9 | CO[C@H]1C[C@](c2cccc(N3Cc4ccc(CNC5(C)CCC5)cc4C3=O)c2)(c2nncn2C)C1 [Compound 449, 2-(3-((1r,3r)-3-methoxy-1-(4-methyl-4H-1,2,4-triazol-3-yl)cyclobutyl)phenyl)-6-(((1-methylcyclobutyl)amino)methyl)isoindolin-1-one] | 220 | 5.4 | 1200 | 8.0 | 120 | 920
10 | Cn1cnnc1[C@]1(c2cccc(N3Cc4c(cc(CNC5(C)CCC5)cc4C(F)(F)F)C3=O)c2)C[C@@H](OC2CC2)C1 [Compound 450, 2-(3-((1r,3r)-3-cyclopropoxy-1-(4-methyl-4H-1,2,4-triazol-3-yl)cyclobutyl)phenyl)-6-(((1-methylcyclobutyl)amino)methyl)-4-(trifluoromethyl)isoindolin-1-one] | 5.8 | 4.0 | 23 | 7.2 | 2.6 | 19
11 | Cn1cnnc1[C@]1(c2cccc(N3Cc4c(Cl)cc(CNC5(C)CCC5)cc4C3=O)c2)C[C@@H](Cl)C1 [Compound 451, 4-chloro-2-(3-((1r,3r)-3-chloro-1-(4-methyl-4H-1,2,4-triazol-3-yl)cyclobutyl)phenyl)-6-(((1-methylcyclobutyl)amino)-methyl)isoindolin-1-one] | 4.2 | 1.6 | 6.6 | 6.0 | 0.25 | 1.5
12 | Cn1cnnc1[C@]1(c2cccc(N3Cc4c(Cl)cc(CNC5(C)CCC5)cc4C3=O)c2)C[C@H](Cl)C1 [Compound 452, 4-chloro-2-(3-((1s,3s)-3-chloro-1-(4-methyl-4H-1,2,4-triazol-3-yl)cyclobutyl)phenyl)-6-(((1-methylcyclobutyl)amino)methyl)isoindolin-1-one] | 5.5 | 1.0 | 5.6 | 3.3 | 0.7 | 2.4
13 | Cn1cnnc1C1(c2cccc(N3Cc4c(cc(C(CF)NC5(C)CCC5)cc4C(F)(F)F)C3=O)c2)CCC1 (stereo not drawn) [Compound 453, 6-(2-fluoro-1-((1-methylcyclobutyl)amino)ethyl)-2-(3-(1-(4-methyl-4H-1,2,4-triazol-3-yl)cyclobutyl)phenyl)-4-(trifluoromethyl)isoindolin-1-one] | 6.6 | 1.7 | 11 | 2.8 | 1.7 | 4.8
14 | CC[C@H]1C[C@@](c2cccc(N3Cc4c(cc(CNC5(C)CCC5)cc4C(F)(F)F)C3=O)c2)(c2nncn2C)C1 [Compound 454, 2-(3-((1r,3s)-3-ethyl-1-(4-methyl-4H-1,2,4-triazol-3-yl)cyclobutyl)phenyl)-6-(((1-methylcyclobutyl)amino)methyl)-4-(trifluoromethyl)isoindolin-1-one] | 6.5 | 2.4 | 16 | 11 | 0.85 | 9.2
15 | CC[C@H]1C[C@](c2cccc(N3Cc4c(cc(CNC5(C)CCC5)cc4C(F)(F)F)C3=O)c2)(c2nncn2C)C1 [Compound 455, 2-(3-((1s,3r)-3-ethyl-1-(4-methyl-4H-1,2,4-triazol-3-yl)cyclobutyl)phenyl)-6-(((1-methylcyclobutyl)amino)methyl)-4-(trifluoromethyl)isoindolin-1-one] | 8.7 | 2.3 | 20 | 11 | 1.4 | 15
16 | Cn1cnnc1[C@H](c1cccc(N2Cc3c(cc(CNC4(C)CCC4)cc3C(F)F)C2=O)c1)C1CC(F)C1 (stereo partly drawn) [Compound 461, 4-(difluoromethyl)-2-(3-((S)-((1s,3R)-3-fluorocyclobutyl)(4-methyl-4H-1,2,4-triazol-3-yl)methyl)phenyl)-6-(((1-methylcyclobutyl)amino)methyl)isoindolin-1-one] | 360 | 8.8 | 3200 | 18 | 190 | 3400
17 | Cn1cnnc1C(c1cccc(N2Cc3c(cc(CNC4(C)CCC4)cc3C(F)(F)F)C2=O)c1)C1(F)CSC1 (stereo not drawn) [Compound 462, 2-(3-((3-fluorothietan-3-yl)(4-methyl-4H-1,2,4-triazol-3-yl)methyl)phenyl)-6-(((1-methylcyclobutyl)amino)methyl)-4-(trifluoromethyl)isoindolin-1-one] | 13 | 1.9 | 24 | 10 | 2 | 21
